Tests used:
[1] = biological target: cDNA-expressed human hepatic CYP3A4 (Homo sapiens (Human), UniProt P08684); experiment: Measurement of CYP (IC50 of P450 CYP3A4), BFC substrate; format: in vitro ADME; conditions: 20 minutes
Summary of the method: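 cDNA-expressed human CYP3A4 supersomes in 0.1M potassium phosphate pH 7.4 with 8.3 mM MgCl2, 1.67 mM EDTA and 0.25 mM NADPH; compounds in acetonitrile (<1% final). Reaction started with 30 µM BFC, 20 min at 37. 7-Hydroxy-4-trifluoromethyl-coumarin read by fluorescence (ex 409/em 530 nm).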

[2] = test system: MV-4-11 (human, Acute Myeloid Leukemia cell line) cells; experiment: Cell growth inhibition assay, GI50 of MV-4-11; format: cell-based; conditions: Homo sapiens, MV4-11, 72 h, MV-4-11 cells
Summary of the method: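 GI50 derived from 490 nm absorbance using CellTiter 96 Aqueous One reagent, with compound-free medium providing the background. Human AML MV-4-11 cells, seeded at 5×10^4 per well in IMDM/10% FBS, incubated 72 h at 37 °C with duplicate serial dilutions of test compound.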

Chain of cDNA-expressed human hepatic CYP3A4 (P08684 whole entry): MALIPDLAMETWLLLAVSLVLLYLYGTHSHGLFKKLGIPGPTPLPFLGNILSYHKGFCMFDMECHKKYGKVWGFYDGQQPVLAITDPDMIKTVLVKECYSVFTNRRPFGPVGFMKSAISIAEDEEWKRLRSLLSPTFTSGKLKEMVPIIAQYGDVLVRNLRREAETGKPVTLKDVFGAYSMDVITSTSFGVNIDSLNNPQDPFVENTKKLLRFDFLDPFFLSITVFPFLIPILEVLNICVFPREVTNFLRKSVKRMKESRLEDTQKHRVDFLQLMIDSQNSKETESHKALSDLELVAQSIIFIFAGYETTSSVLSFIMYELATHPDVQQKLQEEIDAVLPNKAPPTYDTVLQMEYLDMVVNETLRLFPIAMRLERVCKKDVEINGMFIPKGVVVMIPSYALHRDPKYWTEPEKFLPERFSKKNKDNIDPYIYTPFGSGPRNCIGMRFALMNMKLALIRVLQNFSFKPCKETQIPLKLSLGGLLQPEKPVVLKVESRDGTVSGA

SMILES | IC50 [1] | GI50 [2]
C=CCN1CC(=O)N2[C@@H](Cc3ccc(O)cc3)C(=O)N(Cc3cccc4c(-c5ccc(C(=O)Nc6cccc(OC(C)C)c6)cc5)cn(C)c34)C[C@@H]2N1C(=O)NCc1ccccc1 [Compound D-26] | 13700 nM | 19 nM
C=CCN1CC(=O)N2[C@@H](Cc3ccc(O)cc3)C(=O)N(Cc3cccc4c(-c5ccc(C(=O)N(C)C)o5)cn(C)c34)C[C@@H]2N1C(=O)NCc1ccccc1 [Compound D-102] | 3420 nM | 1.6 nM
C=CCN1CC(=O)N2[C@@H](Cc3ccc(O)cc3)C(=O)N(Cc3cccc4c(-c5ccc(C(=O)N6CCSCC6)cc5)cn(C)c34)C[C@@H]2N1C(=O)NCc1ccccc1 [Compound D-5] | 1760 nM | 2.2 nM
C=CCN1CC(=O)N2[C@@H](Cc3ccc(O)cc3)C(=O)N(Cc3cccc4c(-c5ccc(C(=O)Nc6ccc(N7CCOCC7)nc6)cc5)cn(C)c34)C[C@@H]2N1C(=O)NCc1ccccc1 [Compound D-12] | > 25000 nM | 2.1 nM
C=CCN1CC(=O)N2[C@@H](Cc3ccc(O)cc3)C(=O)N(Cc3cccc4c(-c5ccc(C(=O)Nc6ccccc6)cc5)cn(C)c34)C[C@@H]2N1C(=O)NCc1ccccc1 [Compound D-17] | 7630 nM | 6.9 nM
C=CCN1CC(=O)N2[C@@H](Cc3ccc(O)cc3)C(=O)N(Cc3cccc4c(-c5ccc(C(=O)Nc6ccc(N7CCN(C)CC7)cc6)cc5)cn(C)c34)C[C@@H]2N1C(=O)NCc1ccccc1 [Compound D-11] | 7040 nM | 1.8 nM
C=CCN1CC(=O)N2[C@@H](Cc3ccc(O)cc3)C(=O)N(Cc3cccc4c(-c5ccc(NC(=O)c6ccc(N(C)C)cc6)cc5)cn(C)c34)C[C@@H]2N1C(=O)NCc1ccccc1 [Compound D-51] | > 25000 nM | 5.4 nM
C=CCN1CC(=O)N2[C@@H](Cc3ccc(O)cc3)C(=O)N(Cc3cccc4c(-c5ccc(NC(=O)c6ccc(CN(CC)CC)cc6)cc5)cn(C)c34)C[C@@H]2N1C(=O)NCc1ccccc1 [Compound D-55] | 2260 nM | 5.8 nM
C=CCN1CC(=O)N2[C@@H](Cc3ccc(O)cc3)C(=O)N(Cc3cccc4c(-c5ccc(NC(=O)c6ccccc6)cc5)cn(C)c34)C[C@@H]2N1C(=O)NCc1ccccc1 [Compound D-48] | > 25000 nM | 1.9 nM
C=CCN1CC(=O)N2[C@@H](Cc3ccc(O)cc3)C(=O)N(Cc3cccc4c(-c5ccc(NC(=O)Nc6cnccn6)cc5)cn(C)c34)C[C@@H]2N1C(=O)NCc1ccccc1 [Compound D-83] | 4610 nM | 13.8 nM
C=CCN1CC(=O)N2[C@@H](Cc3ccc(O)cc3)C(=O)N(Cc3cccc4c(-c5ccc(NC(=O)Nc6ncccn6)cc5)cn(C)c34)C[C@@H]2N1C(=O)NCc1ccccc1 [Compound D-82] | 8520 nM | 16.8 nM
C=CCN1CC(=O)N2[C@@H](Cc3ccc(O)cc3)C(=O)N(Cc3cccc4c(-c5ccc(C(=O)Nc6ccc(OC)cc6)cc5)cn(C)c34)C[C@@H]2N1C(=O)NCc1ccccc1 [Compound D-22] | 19500 nM | 4.2 nM
C=CCN1CC(=O)N2[C@@H](Cc3ccc(O)cc3)C(=O)N(Cc3cccc4c(-c5ccc(C(=O)Nc6cccc(OC)c6)cc5)cn(C)c34)C[C@@H]2N1C(=O)NCc1ccccc1 [Compound D-21] | 6530 nM | 6.9 nM

Further lines, results first:

IC50 [1] | GI50 [2] | SMILES
5730 nM | 1.3 nM | C=CCN1CC(=O)N2C(CN(Cc3cccc4c(C(=O)Nc5ccc(N6CCN(CC)CC6)nc5)cn(C)c34)C(=O)[C@@H]2Cc2ccc(O)cc2)N1C(=O)NCc1ccccc1 (stereo partly drawn) [Compound G-42]
4190 nM | 1.3 nM | C=CCN1CC(=O)N2C(Cc3ccc(O)cc3)C(=O)N(Cc3cccc4c(C(=O)Nc5ccc(N6CCN(C(C)(C)C)CC6)nc5)cn(C)c34)CC2N1C(=O)NCc1ccccc1 (stereo not drawn) [Compound G-48]
10100 nM | 9.9 nM | C=CCN1CC(=O)N2[C@@H](Cc3ccc(O)cc3)C(=O)N(Cc3cccc4c(C(=O)Nc5ccc(OCCN(C)C)nc5)cn(C)c34)C[C@@H]2N1C(=O)NCc1ccccc1 [Compound G-12]
2010 nM | 15.1 nM | C=CCN1CC(=O)N2[C@@H](Cc3ccc(O)cc3)C(=O)N(Cc3cccc4c(C(=O)NCCCCOC)cn(C)c34)C[C@@H]2N1C(=O)NCc1ccccc1 [Compound F-10]
3900 nM | 18.4 nM | C=CCN1CC(=O)N2[C@@H](Cc3ccc(O)cc3)C(=O)N(Cc3cccc4c(C(=O)N5CCOCC5)cn(C)c34)C[C@@H]2N1C(=O)NCc1ccccc1 [Compound E-3]
10000 nM | 2.2 nM | C=CCN1CC(=O)N2C(CN(Cc3cccc4c(-c5ccc(S(C)(=O)=O)cc5)cn(C)c34)C(=O)[C@@H]2Cc2ccc(O)cc2)N1C(=O)NCc1ccccc1 (stereo partly drawn) [Compound H-3]
4870 nM | 8.5 nM | C=CCN1CC(=O)N2[C@@H](Cc3ccc(O)cc3)C(=O)N(Cc3cccc4c(C(=O)Nc5ccc(N6CC(O)C6)nc5)cn(C)c34)C[C@@H]2N1C(=O)NCc1ccccc1 [Compound G-61]
11200 nM | 1.3 nM | C=CCN1CC(=O)N2[C@@H](Cc3ccc(O)cc3)C(=O)N(Cc3cccc4c(C(=O)Nc5ccc(N6CCCN(C)CC6)nc5)cn(C)c34)C[C@@H]2N1C(=O)NCc1ccccc1 [Compound G-67]
2860 nM | 19.8 nM | C=CCN1CC(=O)N2[C@@H](Cc3ccc(O)cc3)C(=O)N(Cc3cccc4c(C(=O)N(C)CCN5CCOCC5)cn(C)c34)C[C@@H]2N1C(=O)NCc1ccccc1 [Compound F-26]
2160 nM | 8.8 nM | C=CCN1CC(=O)N2C(CN(Cc3cccc4c(C(=O)Nc5ccc(OC)nc5)cn(C)c34)C(=O)[C@@H]2Cc2ccc(O)cc2)N1C(=O)NCc1ccccc1 (stereo partly drawn) [Compound G-5]
2320 nM | 5.6 nM | C=CCN1CC(=O)N2C(Cc3ccc(O)cc3)C(=O)N(Cc3cccc4c(C(=O)Nc5ccc(NCCN6CCOCC6)nc5)cn(C)c34)CC2N1C(=O)NCc1ccccc1 (stereo not drawn) [Compound G-28]
7670 nM | 2.7 nM | C=CCN1CC(=O)N2[C@@H](Cc3ccc(O)cc3)C(=O)N(Cc3cccc4c(C(=O)Nc5ccc(OCCCN6CCCCC6)nc5)cn(C)c34)C[C@@H]2N1C(=O)NCc1ccccc1 [Compound G-31]
19100 nM | 14 nM | C=CCN1CC(=O)N2[C@@H](Cc3ccc(O)cc3)C(=O)N(Cc3cccc4c(C(=O)Nc5ccc(OC(C)(C)C)cc5)cn(C)c34)C[C@@H]2N1C(=O)NCc1ccccc1 [Compound G-6]
3840 nM | 11.9 nM | C=CCN1CC(=O)N2[C@@H](Cc3ccc(O)cc3)C(=O)N(Cc3cccc4c(C(=O)NCCCOC)cn(C)c34)C[C@@H]2N1C(=O)NCc1ccccc1 [Compound F-6]
9650 nM | 2.5 nM | C=CCN1CC(=O)N2[C@@H](Cc3ccc(O)cc3)C(=O)N(Cc3cccc4c(C(=O)NC5CCN(C(=O)c6ccc(N7CCN(C)CC7)cc6)CC5)cn(C)c34)C[C@@H]2N1C(=O)NCc1ccccc1 [Compound F-67]
3850 nM | 15 nM | C=CCN1CC(=O)N2[C@@H](Cc3ccc(O)cc3)C(=O)N(Cc3cccc4c(-c5ccc(C(=O)OC)cc5)cn(C)c34)C[C@@H]2N1C(=O)NCc1ccccc1 [Compound H-1]
6600 nM | 15.1 nM | C=CCN1CC(=O)N2[C@@H](Cc3ccc(O)cc3)C(=O)N(Cc3cccc4c(C(=O)N5CCN6CCCC6C5)cn(C)c34)C[C@@H]2N1C(=O)NCc1ccccc1 (stereo partly drawn) [Compound E-43]
2200 nM | 13.5 nM | C=CCN1CC(=O)N2[C@@H](Cc3ccc(O)cc3)C(=O)N(Cc3cccc4c(C(=O)N5CCN6CCN(C(=O)OC(C)(C)C)CC6C5)cn(C)c34)C[C@@H]2N1C(=O)NCc1ccccc1 (stereo partly drawn) [Compound E-47]
2510 nM | 7.6 nM | C=CCN1CC(=O)N2[C@@H](Cc3ccc(O)cc3)C(=O)N(Cc3cccc4c(C(=O)N(C)CCO)cn(C)c34)C[C@@H]2N1C(=O)NCc1ccccc1 [Compound F-3]
2630 nM | 1.7 nM | C=CCN1CC(=O)N2C(CN(Cc3cccc4c(C(=O)Nc5ccc6c(c5)OCCO6)cn(C)c34)C(=O)[C@@H]2Cc2ccc(O)cc2)N1C(=O)NCc1ccccc1 (stereo partly drawn) [Compound G-70]
6120 nM | 1.3 nM | C=CCN1CC(=O)N2C(CN(Cc3cccc4c(C(=O)Nc5ccc(N6CCN(C(C)C)CC6)nc5)cn(C)c34)C(=O)[C@@H]2Cc2ccc(O)cc2)N1C(=O)NCc1ccccc1 (stereo partly drawn) [Compound G-46]
6150 nM | 17.5 nM | C=CCN1CC(=O)N2[C@@H](Cc3ccc(O)cc3)C(=O)N(Cc3cccc4c(C(=O)NC5CCN(C(=O)c6ccc(N(C)C)cc6)CC5)cn(C)c34)C[C@@H]2N1C(=O)NCc1ccccc1 [Compound F-66]
> 25000 nM | 1.3 nM | C=CCN1CC(=O)N2C(Cc3ccc(O)cc3)C(=O)N(Cc3cccc4c(C(=O)Nc5ccc(N6CCN(C(C)=O)CC6)nc5)cn(C)c34)CC2N1C(=O)NCc1ccccc1 (stereo not drawn) [Compound G-53]
13000 nM | 9 nM | C=CCN1CC(=O)N2[C@@H](Cc3ccc(O)cc3)C(=O)N(Cc3cccc4c(C(=O)Nc5ccc(OCCCN(C)C)nc5)cn(C)c34)C[C@@H]2N1C(=O)NCc1ccccc1 [Compound G-13]
2050 nM | 6.9 nM | C=CCN1CC(=O)N2[C@@H](Cc3ccc(O)cc3)C(=O)N(Cc3cccc4c(C(=O)NCc5ccc(N(C)C)nc5)cn(C)c34)C[C@@H]2N1C(=O)NCc1ccccc1 [Compound F-47]
3290 nM | 1.4 nM | C=CCN1CC(=O)N2[C@@H](Cc3ccc(O)cc3)C(=O)N(Cc3cccc4c(C(=O)Nc5ccc(N6CCC(N7CCC7)CC6)nc5)cn(C)c34)C[C@@H]2N1C(=O)NCc1ccccc1 [Compound G-54]
